Laboratory results: patent US20140341939A1 (NATIONAL UNIVERSITY CORPORATION KOCHI UNIVERSITY, priority 2011, published 2014)
Entries after “also recorded” stand apart in the source; their conditions may differ. Each block holds one compound with its values, some of them ahead of it. Where no end group is shown, it is not given here.

How the values were obtained:
[1] = test system: DO11.10 cells; experiment: Growth of CD4 T cells: proliferation of DO11.10 cells by OVII modified peptides (3H-thymidine); assay type: cell-based, mouse
[2] = test system: peptidase activity in the serum; experiment: Effect of peptidase inhibitor on OVII peptide digestion by mouse serum; assay type: biochemical; details: inhibitor-containing buffer (FIGS. 22-24)
Description: Given the above-mentioned Examples, the inventor examined the effect of peptidase inhibitor on the peptide digestion to identify the peptidase in the serum.

[3] = biological target: T1, ACE (Mus musculus, UniProt P09470); experiment: ACE activity of antigen presenting cell (CH1-IA^d cells, Abz-FRK(Dnp)P-OH substrate); assay type: cell-based; details: 2.5 mM inhibitor, preincubated 37° C. 20 min; 10 μM Abz-FRK(Dnp)P-OH (FIG. 25)
T1 construct: endogenous in cells; host or cells: CH1-IA^d cells (living, in PBS)
T1 sequence (P09470 35-1312): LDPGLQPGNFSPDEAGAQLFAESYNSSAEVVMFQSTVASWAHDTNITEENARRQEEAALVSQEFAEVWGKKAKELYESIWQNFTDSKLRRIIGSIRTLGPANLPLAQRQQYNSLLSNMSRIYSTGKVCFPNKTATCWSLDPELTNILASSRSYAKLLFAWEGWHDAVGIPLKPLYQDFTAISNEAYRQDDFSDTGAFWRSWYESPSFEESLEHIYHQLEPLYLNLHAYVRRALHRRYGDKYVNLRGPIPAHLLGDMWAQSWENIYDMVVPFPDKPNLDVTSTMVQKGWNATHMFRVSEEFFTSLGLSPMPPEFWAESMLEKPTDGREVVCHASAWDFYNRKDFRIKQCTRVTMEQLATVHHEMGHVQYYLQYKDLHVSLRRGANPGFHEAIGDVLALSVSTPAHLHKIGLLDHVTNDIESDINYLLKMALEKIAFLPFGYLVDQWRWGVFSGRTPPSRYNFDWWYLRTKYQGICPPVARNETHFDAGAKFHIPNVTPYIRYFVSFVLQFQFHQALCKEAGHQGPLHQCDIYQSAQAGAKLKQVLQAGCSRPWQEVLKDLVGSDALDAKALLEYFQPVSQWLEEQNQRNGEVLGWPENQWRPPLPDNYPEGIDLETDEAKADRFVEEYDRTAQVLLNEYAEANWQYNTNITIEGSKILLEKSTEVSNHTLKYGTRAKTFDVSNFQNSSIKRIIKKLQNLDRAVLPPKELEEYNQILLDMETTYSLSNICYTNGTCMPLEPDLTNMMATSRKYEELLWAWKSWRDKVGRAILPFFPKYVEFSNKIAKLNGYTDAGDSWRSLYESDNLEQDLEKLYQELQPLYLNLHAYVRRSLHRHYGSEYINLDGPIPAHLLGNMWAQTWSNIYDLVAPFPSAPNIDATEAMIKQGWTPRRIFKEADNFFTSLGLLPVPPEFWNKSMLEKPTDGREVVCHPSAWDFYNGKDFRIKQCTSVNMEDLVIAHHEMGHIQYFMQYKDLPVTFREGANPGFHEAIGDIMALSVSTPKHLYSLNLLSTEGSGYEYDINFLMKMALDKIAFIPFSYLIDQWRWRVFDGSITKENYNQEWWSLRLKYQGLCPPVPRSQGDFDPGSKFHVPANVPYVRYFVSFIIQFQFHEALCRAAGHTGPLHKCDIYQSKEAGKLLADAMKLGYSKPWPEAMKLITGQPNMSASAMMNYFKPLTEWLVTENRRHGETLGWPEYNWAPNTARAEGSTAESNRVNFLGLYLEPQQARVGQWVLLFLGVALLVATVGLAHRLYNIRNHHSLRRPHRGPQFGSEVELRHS
Description: The ACE activity of the cell surface was measured by a modified method of the method described in Sabatini, R. et al., Anal Biochem 363: 255-262, 2007.
10 μM Abz-FRK(Dnp)P-OH (Sigma, St. Louis) was added and the cells were incubated at 37° C. for a given time. The reaction was quenched by placing them on ice. After centrifugation, fluorescence in the supernatant was measured at excitation wavelength of 320 nm and emission wavelength of 420 nm (FIG. 25).

[4] = test system: serum peptidase
Description: (§1) Peptide was digested in TBS containing 10% fresh mouse serum or fresh human serum. After incubation at 37° C. for a given time, 1% trifluoro acid was added to remove various serum proteins by precipitation. After short centrifugation, the soluble fraction was analyzed by reversed-phase HPLC using a C18 analysis column. To normalize variation in the total amount of the peptide loaded for each HPLC, the peak of non-protein components contained in the serum, which is absorbed at the wavelength of 220 nm, was used as an internal control. The peak area of undigested peptides was quantitatively monitored by Chromatopac C-R8A (Shimadzu Corp., Kyoto, Japan), and the amount of the remaining peptide was calculated.
(§2) Therefore, the inventor examined the digestion resistance of peptide in vitro in a 10% fresh mouse serum. The amount of a remaining undigested peptide was quantified by HPLC.

[5] = in vitro; details: mouse, serum
Description: as §1, §2

[6] = test system: EG7 tumor; experiment: Antitumor activity by in vivo immunization with OVA-derived peptides (EL4 / EG7 tumor); details: CBF1 mouse, peptide-loaded LPS blast i.p. 3 times; EL4 / EG7 tumor (FIG. 8)
Description: CBF1 mouse was immunized with LPS blast of splenocyte pulsed with either λ repressor peptide ([…]; SEQ ID NO: 39) or OVAII peptide as a Th epitope peptide, and K^b-binding OVA-I peptide, which is a CTL inducing peptide. LPS blast derived from one spleen was pulsed with peptide, and intraperitoneally injected to immunize two mice. The next day of the third immunization, 9×10^6 EL4 cells and 1.2×10^7 EG7 cells were intradermally transplanted in a pair on the back skin of the mice. The tumor size was measured every other day. Immunization was performed once again 2 weeks from the tumor transplantation.
To verify the anti-tumor effect of inducing tumor-specific Th cells in vivo, the inventor compared the immunization protocol that induces 1. CTL alone, 2. CTL and a third party antigen-specific Th cell, and 3. CTL and tumor-specific Th cell. As the antigen presenting cell, LPS blast of spleen cell was used, and the APC loaded with each peptide alone or the mixture of each peptide was injected intraperitoneally 3 times (once per week). On the day of third immunization, 9×10^6 EL4 and 1.2×10^7 EG7 tumor were innoculated on the opposite sides of the back, and the tumor diameter was measured from day 4.

[7] = test system: DO11.10 cells; experiment: Antigen presentation by F2-IA^d vascular endothelial cells (CD69 expression by DO11.10 cells); assay type: cell-based, mouse
Description: EL4 cells were first opsonized with RGD peptide. Next, 5 mg/ml OVA protein was loaded on the cytoplasm by osmotic pressure loading. After sufficient washing, 2×10^6 EL4 cells were added to a confluent culture medium of F2-IA^d cells on a 24-well plate (cultured for 2 days in advance in the presence of 500 U/ml rmIFN-γ). As a control, EL4 and EG7 mock-loaded with PBS were RGD-modified in the same manner and used. EL4 and other target cells were added to F2-IA^d, and the cell mixture was cultured for 24 hr. As for the control well wherein F2-IA^d cells were directly loaded with OVAII peptide, the cells were pulsed with peptide for 2 hr at the end of the culture. After removing the non-adherent cells and debris of dead cells, the surface of the adhered F2-IA^d cells was sufficiently washed. In an antigen presentation inhibitory experiment using chloroquine, 100 μM chloroquine was added 30 min before addition of EL4, EL4 loaded with OVA or 0.25 mg/ml OVA protein. Furthermore, F2-IA^d cells were cultured for 3 days in the continuous presence of chloroquine.
Whether the F2-IA^d cells presented the target antigen polypeptide on the cell surface was evaluated by monitoring the expression of CD69 by DO11.10 cells. The antigen-presenting F2-IA^d cells and DO11.10 cells were mixed and centrifuged to contact the cells with one another. After 6 hr and 24 hr, the cells were stained with biotin-labeled anti CD69 mAb (H1.2F3, BD Biosciences), and the expression of CD69 by DO11.10 cells was detected by flow cytometry (stained positive with FITC-labeled KJ1.26 (anti clonotypic TCR mAb)).

[8] = test system: DO11.10 cells; experiment: Cell migration test through F2-IA^d cell layer (Transwell); assay type: cell-based, mouse
Description: F2-IA^d cells were cultured until confluence on an insert of Transwell plate (BD Labware, Billerica, Calif.). The cells were cultured in the presence of 500 U/ml rmIFN-γ for the last 3 days of culture. In addition, F2-IA^d cells were pulsed with various concentrations of OVAII peptide for the last 2 hr of culture. After the culture, F2-IA^d cells were washed and CD4^+ cells were isolated by negative selection (Dynal mouse CD4 negative isolation kit (Invitrogen)) from DO11.10 transgenic spleen cells to not less than 95% purity, which were added by 4×10^6 cells per well. The cells were incubated at 37° C., and the number of DO11.10 that migrated under the chamber in 6 hr was counted.

[9] = biological target: T2, I-A^d molecule (Mus musculus, UniProt P01921+P04228); experiment: Peptide-binding assay on CH1-IA^d cells (FITC-streptavidin, flow cytometry); details: CH1-IA^d cells (FIG. 17)
T2 construct: expressed in transfected cells; host or cells: CH1 cells, retroviral transduction with pMX (I-Aβ-IRES-I-Aα)
T2 sequence (P04228 24-256): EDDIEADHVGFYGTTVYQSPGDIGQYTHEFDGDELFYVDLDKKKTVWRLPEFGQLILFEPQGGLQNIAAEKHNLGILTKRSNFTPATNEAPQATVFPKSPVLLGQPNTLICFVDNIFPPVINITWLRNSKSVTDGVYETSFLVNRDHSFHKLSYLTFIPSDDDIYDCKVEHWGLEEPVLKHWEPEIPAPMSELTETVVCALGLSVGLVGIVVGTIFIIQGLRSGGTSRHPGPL
T2 sequence (P01921 28-265): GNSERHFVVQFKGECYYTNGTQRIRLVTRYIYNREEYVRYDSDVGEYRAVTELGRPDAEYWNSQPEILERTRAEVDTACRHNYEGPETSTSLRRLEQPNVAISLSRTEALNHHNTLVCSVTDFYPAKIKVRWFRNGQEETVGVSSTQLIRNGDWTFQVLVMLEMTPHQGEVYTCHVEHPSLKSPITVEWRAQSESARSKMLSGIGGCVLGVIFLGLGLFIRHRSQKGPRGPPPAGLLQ
Description: The CH1-IA^d or CH1-IA^b cells were suspended in 2% BSA IMDM to 2×10^6 cells/ml. The cell suspension (100 μl) was added to peptide (100 μl) continuously diluted with serum-free IMDM. After incubating at 37° C. for 2 hr, 6 hr or 16 hr, the cells were washed and stained with FITC-streptavidin. The amount of peptide bound to the cells was measured by flow cytometry.

[10] = test system: FBL3 erythroleukemia cells; experiment: In vivo antitumor activity in FBL3 tumor mice immunized with MHC class I and class II peptide; details: CBF1 mouse
Description: In the immunization experiment using mouse, the mouse was immunized with PbW332bPβ peptide as a Th-inducing peptide, and Db126 peptide as a CTL inducing peptide. As a tumor to be inoculated to the mouse, FBL3 erythroleukemia cell that highly expresses natural WT1 tumor antigen was used. FBL3 is a cell line that was transformed by infection with Friend leukemia virus, and has high possibility of also expressing virus antigen. In fact, when 2×10^7 FBL3 cells were intradermally injected on the back of the mouse, they grew into a solid tumor. However, the tumor had the tendency to shrink naturally after reaching the maximum size. […] Over time, the tumor sometimes started to grow rapidly in a long-term observation.
CBF1 mouse was immunized in advance by subcutaneous injection of 50 nmoles of Db126 peptide alone, or Db126 peptide and 50 nmoles of W332 peptide, to 4 sites in the top, bottom, left and right of the back. A vaccine of 5×10^7 Bordetella pertussis whole cells was added as an adjuvant to all immunization groups including control PBS inoculation group. The mouse was immunized 3 times (once per week) and then 2×10^7 FBL3 cells were subcutaneously injected to the back.

[11] = Degradation of peptide in 10% fresh mouse serum (HPLC of remaining peptide); details: mouse, 10% fresh mouse serum
Description: as §1, §2

[12] = test system: serum peptidase; experiment: as above; details: 10% fresh mouse serum, up to 16 hr (FIG. 21)
Description: as §1, §2

[13] = test system: Th cell; experiment: In vivo immunization using modified molecule of WA36 (IFN-γ positive Th cells); parameters: species or system mouse; details: IFN-γ positive Th cells (FIG. 27)
[14] = low concentration of pulsed peptide (0.1 μM or less) (FIG. 5)

Compound: C[C@H](CS)C(=O)N1CCC[C@H]1C(=O)O [captopril]
- sensitization activity of OVII on addition of captopril ([1]; 2.5 mM captopril in medium (FIGS. 14, 15)): improved the sensitization activity of OVII to a level close to that of OVIIPA peptide
- survival of DO11.10 cells ([1]; 5 mM captopril): cannot survive
- inhibition of OVII peptide digestion / peptidase activity in serum [2]: suppressed in a concentration-dependent manner

- inhibition of OVII peptide digestion / peptidase activity in serum [2]: almost completely inhibited
- inhibition of peptide degrading enzyme activity associated with living cells [3]: inhibited
Compound: c1cnc2c(c1)ccc1cccnc12 [o-phenanthrolin]

- undigested peptide left [4]: undigested peptide was not left
- metabolised at 2 h [5]: 40%
Compound: ISQAVHAAHAEINEA [OVII]

Compound: ISQAVHAAHAEINEAGR (peptide inducing Th) [OVAII]
- tumor control, Th peptide together with OVA-I [6]: enabled better control of the tumor; also recorded: completely disappeared in a part of the mice
- expression of CD69 in DO11.10 cells ([7]; F2-IA^d cells pulsed with 0.1 μM peptide): induced expression of CD69 in DO11.10 cells to the same level as when OVA-loaded EL4 was incorporated
- stimulation of DO11.10 cells by peptide-pulsed endothelial cells ([7]; F2-IA^d cells pulsed with peptide (FIG. 2)): could stimulate DO11.10 cells
- induction of the expression of CD69 [7, 14]: induction of the expression of CD69 was hardly confirmed
- migration of DO11.10 cells through F2-IA^d cell layer ([8]; high concentration of pulsed peptide (FIG. 5)): did not migrate by penetrating the F2-IA^d cell layer
- migration of DO11.10 cells through F2-IA^d cell layer [8, 14]: actively migrated, and penetrated the F2-IA^d cell layer

Compound: ISQAVHAAHAEINEAR [OVII+]
- binding activity to I-A^d molecule, effect of added Arg [9]: did not affect the binding activity to I-A^d molecule

Compound: KRYFKLSHLQMHSRKH [W332, WT1 antigen-derived polypeptide]
- antitumor activity, Th-inducing peptide together with Db126 peptide ([10]; 50 nmoles each peptide s.c. with Wc adjuvant, 3 times, FBL3 tumor (FIG. 29)): stronger antitumor activity than Db126 single peptide immunization
- long-term remaining tumor, Th-inducing peptide together with Db126 peptide ([10]; FBL3 tumor, vs Wc alone, Db126 or W332 single immunization): tends to shrink

- remaining at 16 h [11]: ~70%
- digestion resistance to serum peptidases (in words) [12]: very strong enzyme resistance
Compound: PSISQAVHAAHAEINEA [POVII]

Compound: PVLDFAPPGASAYGS [WA36, WT1 antigen-derived polypeptide]
- induction of Th cell to the tumor antigen in in vivo immunization [13]: induction of Th cell was extremely difficult
